Assays:
[1] = molecular target: T1, recombinant human mPGES-1 (Homo sapiens, UniProt O14684); experiment: mPGES-1 inhibition test (microsomes, PGH2 substrate, HTRF detection of PGE2); format: biochemical; conditions: for inhibition at 1 µM: inhibition of mPGES-1 at 1 μM (marked in cell)
T1 construct: made in house; host or cells: Rosetta E. coli (microsomal/membrane fraction)
T1 sequence (O14684 1-152): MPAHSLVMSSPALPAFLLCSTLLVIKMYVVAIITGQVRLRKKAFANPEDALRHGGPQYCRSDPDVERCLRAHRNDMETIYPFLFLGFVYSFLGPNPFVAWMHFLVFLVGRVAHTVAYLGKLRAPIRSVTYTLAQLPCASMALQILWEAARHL
How it was run: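 PGE2 formed from PGH2 in one minute by E. coli-expressed microsomal enzyme (pH 7.4, 2.5 mM GSH) was measured by competitive HTRF against a synthetic PGE2 standard curve. Compounds were preincubated 25 min at room temperature.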

Compound	melting point	inhibition at 10 µM ([1]; inhibition of mPGES-1 at 10 μM)	inhibition at 1 µM [1]	% inhib. ([1]; inhibition of mPGES-1 at 10 μM)
O=C(Nc1ccc(Br)cc1)c1ccc2[nH]c(Nc3ccccc3OC(F)(F)F)nc2c1 [Example 106, 2-(2-Trifluoromethoxy-phenylamino)-1H-benzimidazole-5-carboxylic acid (4-bromo-phenyl)-amide]	241 to 243 °C	82%		
Cc1ccc(Cl)cc1NC(=O)c1ccc2[nH]c(Nc3c(Cl)cccc3Cl)nc2c1 [Example 110, 2-(2,6-Dichloro-phenylamino)-1H-benzimidazole-5-carboxylic acid (5-chloro-2-methyl-phenyl)-amide]	178 to 180 °C	96%		
O=C(Nc1ccccc1C(F)(F)F)c1ccc2[nH]c(Nc3c(Cl)cccc3Cl)nc2c1 [Example 113, 2-(2,6-Dichloro-phenylamino)-1H-benzimidazole-5-carboxylic acid (2-trifluoromethyl-phenyl)-amide]	143 to 145 °C	91%		
Cc1c(Cl)cccc1NC(=O)c1ccc2[nH]c(Nc3c(Cl)cccc3Cl)nc2c1 [Example 280, 2-(2,6-Dichloro-phenylamino)-1H-benzimidazole-5-carboxylic acid (3-chloro-2-methyl-phenyl)-amide]	267 to 269 °C	100%		
O=C(Nc1ccccn1)c1ccc2[nH]c(Nc3c(Cl)cccc3Cl)nc2c1 [Example 293, 2-(2,6-Dichloro-phenylamino)-1H-benzimidazole-5-carboxylic acid pyridin-2-ylamide]	245 to 247 °C	87%		
Cn1c(Nc2c(Cl)cccc2Cl)nc2cc(C(=O)Nc3cccc(Cl)c3)ccc21 [Example 297, 2-(2,6-Dichloro-phenylamino)-1-methyl-1H-benzimidazole-5-carboxylic acid (3-chloro-phenyl)-amide]	175 to 176 °C	97%		
COCCOc1cccc(NC(=O)c2ccc3c(c2)nc(Nc2c(Cl)cccc2Cl)n3C)n1 [Example 302, 2-(2,6-Dichloro-phenylamino)-1-methyl-1H-benzimidazole-5-carboxylic acid [6-(2-methoxy-ethoxy)-pyridin-2-yl]-amide]	185 to 187 °C	86%		
O=C(Nc1ccc(Br)cn1)c1ccc2[nH]c(Nc3c(Cl)cccc3Cl)nc2c1 [Example 303, 2-(2,6-Dichloro-phenylamino)-1H-benzimidazole-5-carboxylic acid (5-bromo-pyridin-2-yl)-amide]	183 to 185 °C	90%		
O=C(Nc1cc(C(F)(F)F)ccn1)c1ccc2[nH]c(Nc3c(Cl)cccc3Cl)nc2c1 [Example 304, 2-(2,6-Dichloro-phenylamino)-1H-benzimidazole-5-carboxylic acid (4-trifluoromethyl-pyridin-2-yl)-amide]	179 to 182 °C	98%		
O=C(Nc1nc(C(F)(F)F)cs1)c1ccc2[nH]c(Nc3c(Cl)cccc3Cl)nc2c1 [Example 319, 2-(2,6-Dichloro-phenylamino)-1H-benzimidazole-5-carboxylic acid (4-trifluoro-methyl-thiazol-2-yl)-amide]	301 to 303 °C	100%		
Cc1ccnc(NC(=O)c2ccc3c(c2)nc(Nc2c(Cl)cccc2Cl)n3C)c1 [Example 335, 2-(2,6-Dichloro-phenylamino)-1-methyl-1H-benzimidazole-5-carboxylic acid (4-methyl-pyridin-2-yl)-amide]	157 to 159 °C	95%		
O=C(NCc1ccccc1C(F)(F)F)c1cc(Br)c2[nH]c(Nc3c(Cl)cccc3Cl)nc2c1 [Example 350, 7-Bromo-2-(2,6-dichloro-phenylamino)-1H-benzimidazole-5-carboxylic acid 2-trifluoromethyl-benzylamide]	176 to 178 °C	99%		
Cn1c(Nc2c(Cl)cccc2Cl)nc2cc(C(=O)Nc3ccc(C#N)cn3)ccc21 [Example 544, N-(5-Cyanopyridin-2-yl)-2-(2,6-dichlorophenylamino)-1-methyl-1H-benzimidazole-5-carboxamide]	234 to 236 °C	91%		
CC(C)Oc1cc2c(cc1C(=O)NC1CCC3(CC1)CC3)nc(Nc1c(Cl)ccc(Cl)c1F)n2C [Example 648, 2-(3,6-Dichloro-2-fluoro-phenylamino)-6-isopropoxy-N-(spiro[2.5]oct-6-yl)-1-methyl-1H-benzimidazole-5-carboxamide]			100%	
Cc1ccc(Cl)c(Nc2nc3cc(C(=O)NC4CCCCC4)c(F)cc3[nH]2)c1F [Example 649, 2-(6-Chloro-2-fluoro-3-methyl-phenylamino)-N-cyclohexyl-6-fluoro-1H-benzimidazole-5-carboxamide]			96%	
COc1cc2c(cc1C(=O)NC1CCC(C)(C)CC1)nc(Nc1c(Cl)ccc(C)c1F)n2C [Example 650, 2-(6-Chloro-2-fluoro-3-methyl-phenylamino)-6-methoxy-N-(4,4-dimethyl-cyclohex-1-yl)-1-methyl-1H-benzimidazole-5-carboxamide]			100%	
COc1cc2c(cc1C(=O)NC1CCCCC1)nc(Nc1c(Cl)ccc(C)c1F)n2C [Example 651, 2-(6-Chloro-2-fluoro-3-methyl-phenylamino)-6-methoxy-N-cyclohexyl-1-methyl-1H-benzimidazole-5-carboxamide]			100%	
COc1cc2c(cc1C(=O)NC1CCC(C)(C)CC1)nc(Nc1c(F)c(F)cc(F)c1F)n2C [Example 652, 2-(2,3,5,6-tetrafluoro-phenylamino)-6-methoxy-N-(4,4-dimethy-cyclohex-1-yl)-1-methyl-1H-benzimidazole-5-carboxamide]			94%	
Cc1ccc(Cl)c(Nc2nc3cc(C(=O)N[C@H]4CC[C@H](C(F)(F)F)CC4)c(F)cc3[nH]2)c1F [Example 653, 2-(6-Chloro-2-fluoro-3-methyl-phenylamino)-N-(trans-4-trifluoromethyl-cyclohex-1-yl)-6-fluoro-1H-benzimidazole-5-carboxamide]			92%	
COc1cc2c(cc1C(=O)Nc1ccc(Br)cc1)nc(Nc1cccc(Cl)c1C(F)(F)F)n2C [Example 654]			99%	
Cc1cc2[nH]c(Nc3c(Cl)cccc3Cl)nc2cc1C(=O)NC1CCC(C(C)(C)C)CC1 (stereo not shown) [compound 148]		100%		
Cn1c(Nc2c(Cl)cccc2Cl)nc2cc(C(=O)NC3CCCCC3)ccc21 [compound 317]		98%		
Cc1cccc(C)c1Nc1nc2cc(C(=O)Nc3ccc(Br)cc3)ccc2n1C [compound 318]		100%		
Cc1cccc(NC(=O)c2ccc3c(c2)nc(Nc2c(Cl)cccc2Cl)n3C)n1 [compound 328]		95%		
O=C(Nc1ccc(Br)cc1)c1ccc2[nH]c(Nc3c(F)cccc3Cl)nc2c1 [compound 334]		100%		
Cc1cccc(NC(=O)c2ccc3[nH]c(Nc4c(Cl)cccc4Cl)nc3c2)n1 [compound 336]		85%		
O=C(Nc1cccc(Cl)c1)c1cc(Br)c2[nH]c(Nc3c(Cl)cccc3Cl)nc2c1 [compound 351]		100%		
CN(C)c1ccnc(NC(=O)c2ccc3c(c2)nc(Nc2c(Cl)cccc2Cl)n3C)c1 [compound 559]		85%		
Cc1cc(NC(=O)c2cc3nc(Nc4c(Cl)cc(F)cc4Cl)[nH]c3cc2OCC(F)(F)F)nc(C(F)(F)F)c1 [compound 576]		96%		
N-(4-Bromophenyl)-1-methyl-2-(2-(4-morpholino)phenylamino)-1H-benzimidazole-5-carboxamide [Example 555]				70%

Source: patent publication US8916599B2, “1H-benz imidazole-5-carboxamides as anti-inflammatory agents” (Orexo AB, priority 2008, dated 2014)
